Reference: patent publication US10035780B2, “Quinazoline scaffold based compounds, pharmaceutical compositions and methods of use thereof” (TECHNION RESEARCH & DEVELOPMENT FOUNDATION LTD., priority 2014, dated 2018)
“Also recorded” adds a separate entry of the source. Where two headings read alike, the source gives them in different places.

Key:
TSPO = TSPO (Homo sapiens (Human), UniProt P30536); assay type: binding
Protocol: Briefly, the assay utilizes radioactive standard ligand [^3H] PK 11195 (1-(2-chlorophenyl)-N-methyl-N-(1-methyl-propyl)-3 isoquinolinecarboxamide), and measures the ability of the compounds of the invention to displace standard ligand in binding to TSPO. Total radioactive binding was determined by measuring the radioactivity of the radioactive ligand-receptor complex, obtained in the reaction of radioactive standard with the TSPO. Radioactive standard and the examined compound were added to the TSPO and after some incubation time the radioactivity of the resulting ligand-receptor complexes was measured with the help of a […]. This radioactivity indicates the binding of the radioactive standard to TSPO. […] This can be expressed as the half maximal inhibitory concentration (IC50), which is a measure of the effectiveness of a compound in inhibiting biological or biochemical function, in this case inhibiting binding of standard radioactive ligand binding to the TSPO. A derivative of the IC50 is the Ki, which is the calculated binding affinity of the novel compound to the TSPO.
Binding to TSPO was evaluated using a [^3H]PK 11195 radio-assay, as described above.

U118MG cells [1] = assay: Protection against cell death induced by glutamate in U118MG cell culture; assay type: cell-based, human; details: for protection against cell death induced by glutamate: U118MG cells, 35 mM glutamate, compound 1-100 μM; for Protection against glutamate-induced cell death: cell culture, grade in words; for lethal effects of compound at high concentration: 100 μM compound alone; for lethal effects of compound at high concentration / cell death effect of glutamate at high compound concentration: halogenated vs unhalogenated analog
Protocol: Cell cultures of various human glial type cell lines (T98G, U87MG, A172, U118MG), as well as human neuronal type cell lines SH-SY 5Y and Be(2)-C were used to test the new compounds. In addition, the rat glioma cell line C6 was used. PC12 cells originating from rats were used as another cell line displaying neuronal characteristics. The applicants also have produced, by genetic manipulation, a modified rat C6 glial cell strain and a modified human U118MG glial type cell strain, both under-expressing the TSPO, which allows to study TSPO specific effects, including of the compounds of the invention, which can be done according to methods described previously (Weisinger et al. Biochemistry. 2004; 43:12315-21; Levin et al. 2005; Zeno et al., 2009).
The protective capabilities of the compounds of the invention and involvement of the TSPO were tested in cell culture, using cell lines of glial and neuronal type, cultured and testing according to standard methods (Kugler et al. 2008; Zeno et al. 2009; Dadon-Nachum et al. Stem Cell Rev. 2011; 7:664-71). Furthermore, primary cell cultures are also used (Banker, G. et al. Culturing Nerve Cells, 2nd Edition, The MIT Press (1998). Treatments included: (1) exposure to glutamate (35 mM), Abeta(1-42), NH4Cl, CoCl2, and nitric oxide (NO) donors, in order to mimic particular aspects of neurodegeneration; (2) treatment with the novel compounds and with traditional TSPO ligands as comparative treatment; and (3) TSPO knockdown by genetic manipulation.
(§1) Techniques and parameters assayed are summarized here: Total protein levels (Bradford. Anal Biochem. 1976; 72:248-54); TSPO ligand binding assays (Kugler et al. 2008; Levin et al. 2005; Danovich et al. Eur Neuropsychopharmacol. 2008; 18:24-33) cell death, including apoptosis and necrosis and related molecular biological processes (Soustiel et al. Neuropathol Appl Neurobiol. 2008; 34:412-23; Soustiel et al. Exp Neurol. 2008; 214:201-8; Zeno et al. 2009); mitochondrial transmembrane potential collapse (Chelli et al. Biochem Pharmacol. 2004; 68:125-34; Kugler et al. 2008; Zeno et al., 2009; Shargorodsky et al. Apoptosis. 2012; 17:647-65), reactive oxygen species (ROS) generation as a measure of oxidative stress (Veenman et al. 2008; Zeno et al. 2009); TSPO knockdown (Levin et al. 2005; Zeno et al. 2009); expression levels of mitochondrial TSPO and associated proteins (Veenman et al. 2002; Levin et al. 2005; Veenman et al. 2008); gene expression with RT-PCR and microarray analysis (Bode et al. 2012; Veenman et al. 2012). Parameters of inflammation, immune response, migration, and the cell cycle are also tested. All these approaches can also be applied for quality control of the compounds.
The compounds of the invention protect against cell death induced by glutamate in cell culture of U118MG cells of astrocytic origin (FIGS. 1, 2, 3 and 8) or SH SY 6Y cells of neuronal origin (FIG. 4). […] In the control group, 35 mM of glutamate killed ˜60% of the cells.
The experimental setup is explained using FIG. 8B as an example: • 1. Control: Cell death levels are taken as 0% • 2. Glu: Cell death levels induced by glutamate are over 50% • 3. […] Glu+Cpd 5: When Cpd 5 is given as a treatment to counteract cell death induced by glutamate, increasing concentrations of Cpd 5 reduce cell death levels from over 50% to less than 5%.

R6-2 mice [2] = assay: Incidence of tremor in R6-2 mice; assay type: in vivo, mouse
Description: (§2) Apart from the behavioral experiments, mice were observed daily, and the day of death was noted. Behavioral experiments included distance covered in an open field apparatus, and tremor measurements.
To assay incidence of tremor in R6-2 mice of the experiments for this invention, the StartleMonitor of Kinder Scientific (Poway, Calif.), with specific software to assay and present force pressure changes in newtons, was used.

R6-2 mice [3] = assay: Lifespan of R6-2 mice, transgenic model for Huntington Disease; assay type: in vivo, mouse; details: for effect on lifespan: daily s.c. injections 5 days a week from week 5, vs DMSO and saline
Description: For the assays described herein systemic injections of kainic in rats were applied and also contusion (Veenman et al. 2002; Soustiel et al. Neuropathol Appl Neurobiol. 2008; Soustiel et al. Exp Neurol. 2008). These models present very well defined cell death in the brain. Cell death in the brain is the major pathological characteristic of progressing neurodegeneration common to brain diseases. As the compounds of the present invention are designed to prevent cell death in the brain as a consequence of disease and progressing brain damage after injury, including behavioral impairments, animal models displaying cell death in the brain are the models of choice for displaying the protective capabilities of the compounds of the invention. For these reasons the R6-2 model for Huntington Disease was chosen to test the effectiveness of Compound 1 and to compare the effectiveness of Compound 1 with those of the compound of U.S. Pat. No. 8,541,428 (Cpd A) and with the classical TSPO ligand PK 11195, as well as other compounds disclosed herein. Compounds 5 and 6 were also tested in the same R6-2 model.
R6-2 is a transgenic mouse model for Huntington Disease. Huntington Disease in humans is a hereditary neurodegenerative disease affecting motor performance and finally leading to death of the patients having the disease. R6-2 mice (˜120 CAG repeats B6CBA-Tg(HDexon1)62 Gpb/3J) mice were used for the experiments described below. For this purpose, mice obtained from the Jackson Laboratory (ME) were bred. In particular: males genotype: Hemizygous for Tg(HDexon1)62 Gpb, and females from the wildtype background strain B6CBAF1/J were bred according to the protocol of Jackson Laboratory. The male heterozygote offspring (R6-2 mice) were used for determining life span and motor activity, with and without drug treatment. Drug treatment consisted of daily (5 continuous days a week) subcutaneous injections of mice with 20 μl of: saline (sham control), vehicle DMSO (vehicle control), classic TSPO ligand PK 11195 (15 mg/kg), prior art Compound A (15 mg/kg), Compound 1 (15 mg/kg), and compound 1 (7.5 mg/kg). Drug treatment started on week 5 after birth. Quantities were used according to previous studies regarding TSPO ligands.
as §2
R6-2 mice were used as previously described in Example 5. In one experiment, treatment consisted of daily (5 continuous days per week) subcutaneous injections of mice with 20 μl of vehicle DMSO (control, n=10) and Compound 6 (7.5 mg/kg, n=12). In a separate experiment, compound 5 (7.5 mg/kg, n=5) was tested, compared to DMSO control (n=5).

U118MG cells [4] = assay: Collapse of the mitochondrial membrane potential (ΔΨm) induced by glutamate; assay type: cell-based, human; details: glutamate exposed cells
Description: as §1
Compound 1 is very effective at a concentration of 25 μM in this model (in order to achieve the same effect with the classical TSPO ligand PK 11195 a concentration of 50 μM has to be applied (data not shown).

[5] = displacement of [3H]PK 11195 from TSPO
[6] = binding affinity to the TSPO, unit given as nm

Sequence of TSPO (P30536 whole entry): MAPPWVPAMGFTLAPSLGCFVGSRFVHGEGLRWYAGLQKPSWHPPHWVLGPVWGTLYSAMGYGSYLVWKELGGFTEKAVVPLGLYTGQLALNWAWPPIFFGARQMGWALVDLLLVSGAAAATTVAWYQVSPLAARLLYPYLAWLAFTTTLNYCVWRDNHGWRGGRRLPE

Row | Structure (SMILES) | Ki (TSPO; [5]) [nM] | protection against cell death induced by glutamate (U118MG cells [1]) | Protection against glutamate-induced cell death (U118MG cells [1]) | effect on lifespan (R6-2 mice [3]) | also measured
1 | CCN(CC)C(=O)Oc1nc(-c2c(Cl)cccc2Cl)nc2ccccc12 [Compound 3, 2-(2,6-dichlorophenyl)quinazolin-4-yl diethylcarbamate] | ~1510 | good protective properties | Good |  | protection against cell death induced by glutamate (U118MG cells [1]; listed as compound 3): protective properties
2 | CCN(C)C(=O)Oc1nc(-c2ccccc2Cl)nc2ccccc12 [Compound 6, 2-(2-chlorophenyl)quinazolin-4-yl ethyl(methyl)carbamate] | ~60 | protect better and more consistently; also recorded: improves protection | Excellent | increase the average lifespan; also recorded: extends the life span | lethal effects of compound at high concentration (U118MG cells [1]): reduces lethal effects; lethal effects of compound at high concentration (U118MG cells [1]; listed as Cpd 6): reduces cell death effects; protection against cell death induced by glutamate (U118MG cells [1]; listed as compound 6): superior over compound 1; cell death effect of glutamate at high compound concentration (U118MG cells [1]; glutamate plus 100 μM compound): reduces cell death effect of glutamate in cultures even further; cells killed by glutamate (U118MG cells [1]; glutamate plus 100 μM compound, glutamate alone kills 50-60%): 5%; incidence of tremor activity (R6-2 mice [2]): tremor reducing effects; also recorded: reduced the incidence of tremor activity; week until which 50% of the mice were still alive (R6-2 mice [3]; 7.5 mg/kg s.c., 50% of DMSO mice died before 10th week): 12 week; effect on lifespan (R6-2 mice [3]; listed as compound 6): robust lifespan enhancing
3 | CN(C)C(=O)Oc1nc(-c2ccccc2)nc2ccccc12 [Compound A, reference compound] | ~600 | significantly less efficacious | Good | indistinguishable from vehicle treated mice; also recorded: had no such effects; also recorded: has no effect | Ki (TSPO; [6]): ~600 nM
4 | CCN(CC)C(=O)Oc1nc(-c2ccccc2)nc2ccccc12 [Compound 7, 2-phenylquinazolin-4-yl diethylcarbamate] | ~2.5 |  | Good |  | Ki (TSPO; [6]): ~2.5 nM
5 | CCN(CC)C(=O)Oc1nc(-c2ccc(F)c(Cl)c2)nc2ccccc12 [Compound 2, 2-(3-chloro-4-fluorophenyl)quinazolin-4-yl diethylcarbamate] | ~380 | strong protective properties | Good |  | protection against cell death induced by glutamate (U118MG cells [1]; listed as compound 2): protective properties
6 | CCN(CC)C(=O)Oc1nc(-c2ccccc2Cl)nc2ccccc12 [Compound 8, 2-(2-chlorophenyl)quinazolin-4-yl diethylcarbamate] | ~2.5 | improves protection | Good |  | lethal effects of compound at high concentration (U118MG cells [1]): reduces lethal effects; lethal effects of compound at high concentration (U118MG cells [1]; listed as Cpd 8): reduces cell death effects; cell death effect of glutamate at high compound concentration (U118MG cells [1]; glutamate plus 100 μM compound): reduces cell death effect of glutamate in cultures even further
7 | CCC(C)N(C)C(=O)c1cc2ccccc2c(-c2ccccc2Cl)n1 (stereo not drawn) [PK 11195, 1-(2-chlorophenyl)-N-methyl-N-(1-methyl-propyl)-3 isoquinolinecarboxamide, reference compound] |  |  |  | indistinguishable from vehicle; also recorded: had no such effects; also recorded: has no effect at all | concentration very effective in preventing ΔΨm collapse (U118MG cells [4]): 50 µM
